From patent US4293560A, “Talampicillin 2-methoxyphenoxyacetate and pharmaceutical compositions containing it” (priority 1980, dated 1981)
Like-named read-outs stand apart in the source and are kept apart here.

How the values were obtained:
[1] = rat, in vivo, po
Protocol: (§1) The sodium ampicillin and the talampicillin hydrochloride have been administered in aqueous solution; the other talampicillin salts have been administered in aqueous suspension.
(§2) At 0.5, 1,2,4 and 6 hours after the administration the animals were sacrified and their blood was taken from the portal vein.

[2] = white powder
[3] = cited from earlier work
in vivo = settings: rat, po, 100 mg/kg
Protocol: as §1, §2

mcg/ml ampicillin, average ± standard error ([1]; 30 min)	mcg/ml ampicillin, average ± standard error ([1]; 60 min)	mcg/ml ampicillin, average ± standard error ([1]; 120 min)	mcg/ml ampicillin, average ± standard error ([1]; 240 min)	mcg/ml ampicillin, average ± standard error ([1]; 360 min)	SMILES	further results
23.4 ± 2.4 µg/mL	10.2 ± 0.9 µg/mL	3.8 ± 1.1 µg/mL	1.7 ± 0.4 µg/mL	1.6 ± 1 µg/mL	CC1(C)S[C@@H]2[C@H](NC(=O)[C@H](N)c3ccccc3)C(=O)N2[C@H]1C(=O)OC1OC(=O)c2ccccc21 (single isomer, unassigned) [talampicillin 2-methoxyphenoxyacetate, 2-methoxyphenoxyacetate of the phthalidyl ester of the 6-[D(-)-α-aminophenylacetamido]penicillanic acid]	SBC [1]: 30; storage [2]: do not show any problem of storage
–	–	–	–	–	CC1(C)S[C@@H]2[C@H](NC(=O)[C@H](N)c3ccccc3)C(=O)N2[C@H]1C(=O)OC1OC(=O)c2ccccc21 (single isomer, unassigned) [talampicillin, phtahlidyl ester of the 6-[D(-)-α-aminophenylacetamido]penicillanic acid]	blood levels of the parent ampicillin (in words) ([3]; in vivo, po): very high blood levels of the parent ampicillin; absorption (in words) ([3]; oral route, animals and man): well absorbed when administered by oral route in animals and in man
–	–	–	–	–	CC1(C)S[C@@H]2[C@H](NC(=O)[C@H](N)c3ccccc3)C(=O)N2[C@H]1C(=O)O [sodium ampicillin, 6-[D(-)-α-aminophenylacetamido]penicillanic acid]	AUC at 6 h (in vivo): 10700 ng·h/mL; concentration at 0.5 h (in vivo): 6400 ng/mL; concentration at 1 h (in vivo): 4600 ng/mL; concentration at 2 h (in vivo): 1400 ng/mL; concentration at 4 h (in vivo): 800 ng/mL; concentration at 6 h (in vivo): 200 ng/mL
14.8 ± 3.4 µg/mL	6.1 ± 1.8 µg/mL	2.7 ± 0.2 µg/mL	1.9 ± 0.6 µg/mL	1.1 ± 0.1 µg/mL	CC1(C)S[C@@H]2[C@H](NC(=O)[C@H](N)c3ccccc3)C(=O)N2[C@H]1C(=O)OC1OC(=O)c2ccccc21 (some centres unmarked) [talampicillin napsylate, naphthalene 2-sulphonate of talampicillin]	–
